Data reported in ChEMBL document CHEMBL1201862, “PubChem BioAssay data set” (2004).
Values belong to the compound of their own block, whether it stands above or below them. Active and inactive are the calls of the source.

How the values were obtained:
Format in all cases: functional
Caspase-3 = biological target: T1, Caspase-3 (Homo sapiens, UniProt P42574); test: SAR Analysis of small molecule inhibitors of Sentrin-specific proteases (SENPs) using a Caspase-3 Selectivity assay. [Related pubchem assays (depositor defined):AID2540, AID2599, AID434973, AID489001]
T1 sequence (P42574 whole entry): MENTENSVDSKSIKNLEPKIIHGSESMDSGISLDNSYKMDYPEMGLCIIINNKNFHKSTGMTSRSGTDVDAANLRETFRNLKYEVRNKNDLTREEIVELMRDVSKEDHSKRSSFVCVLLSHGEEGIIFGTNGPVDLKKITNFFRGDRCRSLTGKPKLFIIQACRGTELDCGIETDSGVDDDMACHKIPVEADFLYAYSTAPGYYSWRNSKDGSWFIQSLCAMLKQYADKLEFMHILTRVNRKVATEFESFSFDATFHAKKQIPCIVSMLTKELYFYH

[1] = biological target: T2, Sentrin-specific protease 8 (Homo sapiens, UniProt Q96LD8); test: inhibition of human SENP8 cleavage activity – biochemical, luminescence, SAR follow-up (AID 504501)
T2 sequence (Q96LD8 whole entry): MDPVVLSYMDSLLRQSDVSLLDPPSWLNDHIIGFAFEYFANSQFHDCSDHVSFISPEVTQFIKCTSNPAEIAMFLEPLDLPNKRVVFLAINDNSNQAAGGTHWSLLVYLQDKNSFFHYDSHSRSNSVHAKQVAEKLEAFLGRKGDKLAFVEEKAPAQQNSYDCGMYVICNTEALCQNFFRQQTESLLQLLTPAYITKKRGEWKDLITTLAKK

[2] = biological target: T3, Sentrin-specific protease 7 (Homo sapiens, UniProt Q9BQF6); test: inhibition of human SENP7 cleavage activity – biochemical, luminescence, SAR follow-up (AID 504497)
T3 sequence (Q9BQF6 whole entry): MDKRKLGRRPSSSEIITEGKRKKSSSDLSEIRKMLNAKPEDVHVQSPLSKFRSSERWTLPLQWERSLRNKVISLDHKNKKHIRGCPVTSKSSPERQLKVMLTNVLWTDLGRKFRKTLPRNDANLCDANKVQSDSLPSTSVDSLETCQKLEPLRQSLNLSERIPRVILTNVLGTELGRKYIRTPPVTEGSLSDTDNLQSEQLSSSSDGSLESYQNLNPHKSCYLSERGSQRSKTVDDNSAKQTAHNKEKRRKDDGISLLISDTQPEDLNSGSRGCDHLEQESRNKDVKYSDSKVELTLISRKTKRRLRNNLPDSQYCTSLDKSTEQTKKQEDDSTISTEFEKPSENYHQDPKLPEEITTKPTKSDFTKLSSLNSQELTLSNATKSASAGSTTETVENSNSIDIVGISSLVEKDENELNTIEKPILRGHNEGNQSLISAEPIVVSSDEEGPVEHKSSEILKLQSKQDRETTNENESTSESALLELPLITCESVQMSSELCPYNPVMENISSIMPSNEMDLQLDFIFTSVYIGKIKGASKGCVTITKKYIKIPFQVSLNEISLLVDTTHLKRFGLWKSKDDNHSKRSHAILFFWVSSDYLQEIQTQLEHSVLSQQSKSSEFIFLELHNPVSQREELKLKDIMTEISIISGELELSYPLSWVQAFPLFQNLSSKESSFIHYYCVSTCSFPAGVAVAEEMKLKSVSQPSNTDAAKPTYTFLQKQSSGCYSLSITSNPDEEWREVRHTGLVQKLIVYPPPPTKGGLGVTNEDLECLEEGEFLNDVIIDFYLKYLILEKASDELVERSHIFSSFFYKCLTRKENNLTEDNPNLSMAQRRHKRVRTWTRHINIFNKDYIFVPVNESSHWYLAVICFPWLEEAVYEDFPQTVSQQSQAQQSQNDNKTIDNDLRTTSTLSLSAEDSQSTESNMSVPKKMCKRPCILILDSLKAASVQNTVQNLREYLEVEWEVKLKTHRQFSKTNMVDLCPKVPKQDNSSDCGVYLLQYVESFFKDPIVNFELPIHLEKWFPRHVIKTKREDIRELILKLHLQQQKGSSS

[3] = biological target: T4, Sentrin-specific protease 6 (Homo sapiens, UniProt Q9GZR1); test: SAR Analysis of small molecule inhibitors of Sentrin-specific protease 6 (SENP6) using a Luminescent assay. [Related pubchem assays (depositor defined):AID2582, AID2599]
T4 sequence (Q9GZR1 whole entry): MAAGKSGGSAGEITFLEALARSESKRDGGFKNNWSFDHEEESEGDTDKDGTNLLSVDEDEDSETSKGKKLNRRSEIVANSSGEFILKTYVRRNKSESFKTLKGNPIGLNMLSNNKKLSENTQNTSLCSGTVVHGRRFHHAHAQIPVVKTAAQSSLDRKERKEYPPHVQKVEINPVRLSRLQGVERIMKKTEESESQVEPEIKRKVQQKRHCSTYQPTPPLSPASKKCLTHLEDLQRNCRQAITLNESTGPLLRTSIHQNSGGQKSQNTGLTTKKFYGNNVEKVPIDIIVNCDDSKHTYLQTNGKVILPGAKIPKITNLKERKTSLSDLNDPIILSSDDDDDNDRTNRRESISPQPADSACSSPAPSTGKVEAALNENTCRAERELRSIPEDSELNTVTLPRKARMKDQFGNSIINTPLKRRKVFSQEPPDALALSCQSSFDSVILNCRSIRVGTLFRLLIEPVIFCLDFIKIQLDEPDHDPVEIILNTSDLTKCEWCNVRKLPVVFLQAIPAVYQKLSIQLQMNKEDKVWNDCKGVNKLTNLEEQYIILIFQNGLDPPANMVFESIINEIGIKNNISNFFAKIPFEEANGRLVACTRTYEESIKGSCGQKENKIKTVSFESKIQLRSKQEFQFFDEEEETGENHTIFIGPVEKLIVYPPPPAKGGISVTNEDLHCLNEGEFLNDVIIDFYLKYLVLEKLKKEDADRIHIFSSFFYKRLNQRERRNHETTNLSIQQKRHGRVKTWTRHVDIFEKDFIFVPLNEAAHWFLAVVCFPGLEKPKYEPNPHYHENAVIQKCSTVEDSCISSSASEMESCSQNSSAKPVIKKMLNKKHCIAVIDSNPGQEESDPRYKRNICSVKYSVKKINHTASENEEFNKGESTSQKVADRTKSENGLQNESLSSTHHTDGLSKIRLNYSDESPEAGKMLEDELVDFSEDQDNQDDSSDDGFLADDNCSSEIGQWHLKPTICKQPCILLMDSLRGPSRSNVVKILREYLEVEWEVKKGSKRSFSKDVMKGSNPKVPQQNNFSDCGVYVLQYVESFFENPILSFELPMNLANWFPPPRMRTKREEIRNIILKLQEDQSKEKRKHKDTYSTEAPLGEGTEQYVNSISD

[4] = biological target: T5, Orexin/Hypocretin receptor type 1 (Homo sapiens, UniProt O43613); test: Homogeneous Time Resolved Fluorescence (HTRF)-based cell-based high throughput dose response assay for antagonists of the orexin 1 receptor (OX1R; HCRTR1). [Related pubchem assays (depositor defined):AID434989, AID435008, AID463079, AID485270, AID492963, AID492964, AID492965, AID493232, AID504717, AID504718]
T5 sequence (O43613 whole entry): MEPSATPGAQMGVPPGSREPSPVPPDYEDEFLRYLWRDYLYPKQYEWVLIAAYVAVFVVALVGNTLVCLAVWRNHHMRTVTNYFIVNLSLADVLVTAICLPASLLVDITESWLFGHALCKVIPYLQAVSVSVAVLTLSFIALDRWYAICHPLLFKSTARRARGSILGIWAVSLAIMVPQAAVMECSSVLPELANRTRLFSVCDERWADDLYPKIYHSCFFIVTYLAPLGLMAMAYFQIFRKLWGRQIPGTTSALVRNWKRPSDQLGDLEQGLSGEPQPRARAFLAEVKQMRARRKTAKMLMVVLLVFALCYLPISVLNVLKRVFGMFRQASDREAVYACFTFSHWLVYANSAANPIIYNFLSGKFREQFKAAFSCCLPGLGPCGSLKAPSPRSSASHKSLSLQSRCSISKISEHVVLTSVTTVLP

[5] = (§1) Counterscreen for antagonists of the orexin 1 receptor (OX1R; HCRTR1): Fluorescence-based cell-based high throughput dose response assay to identify antagonists of the parental CHO cell line. [Related pubchem assays (depositor defined):AID434989, AID435008, AID463079, AID485270, AID492963, AID492964, AID492965, AID493232, AID504699, AID504701]
Orexin receptor type 2 [6] = biological target: T6, Orexin receptor type 2 (Homo sapiens, UniProt O43614); test: Counterscreen assay for antagonists of the orexin 1 receptor (OX1R; HCRTR1): Fluorescence-based cell-based dose response assay for antagonists of the orexin 2 receptor (OX2R; HCRTR2), run by assay provider.
T6 sequence (O43614 whole entry): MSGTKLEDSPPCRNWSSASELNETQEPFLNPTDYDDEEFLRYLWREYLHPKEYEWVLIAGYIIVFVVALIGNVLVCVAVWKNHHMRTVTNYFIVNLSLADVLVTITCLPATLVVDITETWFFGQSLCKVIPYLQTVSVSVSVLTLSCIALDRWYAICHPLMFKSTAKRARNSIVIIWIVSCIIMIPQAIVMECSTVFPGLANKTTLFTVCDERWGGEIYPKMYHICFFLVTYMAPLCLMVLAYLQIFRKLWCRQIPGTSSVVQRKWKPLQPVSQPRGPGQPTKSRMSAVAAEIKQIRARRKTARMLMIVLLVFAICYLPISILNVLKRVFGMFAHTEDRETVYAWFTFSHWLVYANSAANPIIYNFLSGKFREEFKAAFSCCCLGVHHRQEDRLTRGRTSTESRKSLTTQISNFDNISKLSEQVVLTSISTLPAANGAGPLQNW

[7] = biological target: T5, Orexin/Hypocretin receptor type 1; test: Fluorescence-based cell-based high throughput dose response assay for antagonists of the orexin 1 receptor (OX1R; HCRTR1). [Related pubchem assays (depositor defined):AID434989, AID435008, AID463079, AID485270, AID492963, AID492964, AID492965, AID493232, AID504717, AID504718]
CHO-K1 = test: as §1, with “Homogeneous time resolved fluorescence (HTRF)-based” for “Fluorescence-based”, “cell-based” for “cell-based high throughput”, “CHO-K1” for “CHO”; conditions: Cricetulus griseus;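 also: potency for inhibition of ATP-stimulated IP1 production as antagonists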
Orexin receptor type 2 [8] = biological target: T6, Orexin receptor type 2; test: Counterscreen assay for antagonists of the orexin 1 receptor (OX1R; HCRTR1): Homogeneous Time Resolved Fluorescence (HTRF)-based cell-based dose response assay for antagonists of the orexin 2 receptor (OX2R; HCRTR2), run by assay provider.
Phospholipase A2 = Phospholipase A2 (Homo sapiens, UniProt P04054);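 also: confirmatory dose-response counterscreen on phospholipase A2, testing hits that came from an ultra-high-throughput screen for ATG4B inhibitors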
Phospholipase A2, sequence (P04054 whole entry): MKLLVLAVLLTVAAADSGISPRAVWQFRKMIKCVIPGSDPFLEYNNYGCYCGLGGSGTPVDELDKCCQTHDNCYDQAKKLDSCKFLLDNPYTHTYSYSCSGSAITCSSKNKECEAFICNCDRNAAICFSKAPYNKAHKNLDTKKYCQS

Cysteine protease ATG4B = biological target: T7, Cysteine protease ATG4B (Homo sapiens, UniProt Q9Y4P1);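 also: Fluorescence-based dose-response confirmation assay measuring inhibition of ATG4B activity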
T7 sequence (Q9Y4P1 whole entry): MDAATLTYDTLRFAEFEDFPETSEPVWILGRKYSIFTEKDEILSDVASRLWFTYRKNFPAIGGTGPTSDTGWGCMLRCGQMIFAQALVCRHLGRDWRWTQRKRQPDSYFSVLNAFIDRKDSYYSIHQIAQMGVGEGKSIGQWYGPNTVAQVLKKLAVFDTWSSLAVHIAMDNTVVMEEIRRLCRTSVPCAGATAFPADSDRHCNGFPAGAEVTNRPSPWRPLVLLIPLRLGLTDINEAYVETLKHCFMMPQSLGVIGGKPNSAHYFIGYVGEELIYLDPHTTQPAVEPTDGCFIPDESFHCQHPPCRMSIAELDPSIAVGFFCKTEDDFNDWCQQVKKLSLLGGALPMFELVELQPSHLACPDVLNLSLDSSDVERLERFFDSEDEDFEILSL

- IC50 (Caspase-3): 7.08 µM (active)
- IC50 [2]: 12.9 µM (active)
- IC50 [3]: > 99 µM (inactive)
SMILES: NC(=O)c1ccc(NC(=O)c2ccc3c(c2)OCO3)cc1
- IC50 [1]: > 99 µM (inactive)

SMILES: COc1ccc(OC)c(S(=O)(=O)NCC(c2ccco2)N2CCc3ccccc32)c1 (configuration not stated)
- IC50 [4]: 2.3 µM (active)
- IC50 [5]: > 49.8 µM (inactive)
- IC50 (Orexin receptor type 2 [6]): 10.5 µM (inactive)
- IC50 [7]: 2 µM (active)
- IC50 (CHO-K1): > 66.2 µM (inactive)
- IC50 (Orexin receptor type 2 [8]): > 50 µM (inactive)

- IC50 (Phospholipase A2): 9.91 µM (active)
- IC50 (Cysteine protease ATG4B): 13.2 µM (active)
SMILES: CC1CCc2sc(C(=O)N3CCC(C(N)=O)CC3)cc2C1 (configuration not stated)
